Test results published in patent US4520022A, “Substituted vinyl cephalosporins” (priority 1983, dated 1985).
Converted amounts (≈) assume the structure as drawn. Like-named read-outs stand apart in the source and are kept apart here.

Key:
S. aureus BX-1633 = assay: Protective dose PD50, mice infected with lethal inoculum, oral treatment, S. aureus BX-1633; format: in vivo; conditions: Staphylococcus aureus, BX1633, 120 h
S. pyogenes A20201 = assay: Protective dose PD50, mice infected with lethal inoculum, oral treatment, S. pyogenes A20201; format: in vivo; conditions: Streptococcus pyogenes, 120 h
H. influenza A9729 = assay: Protective dose PD50, mice infected with lethal inoculum, oral treatment, H. influenza A9729; format: in vivo; conditions: Mus musculus, 120 h
Source text: The structure activity correlations drawn from the foregoing in vitro studies are born out by the results of in vivo studies in mice. Table 4 is a tabulation of the protective doses for mice infected with a lethal inoculum of a bacteria. Two different bacteria were employed in the studies, one a Gram+ organism and the other a Gram- organism. The protective dose (PD50) is that dose which when administered to a group of infected mice results in 50% survival after five days. Normally untreated infected mice die within three days following injection of the lethal inoculum.
Protective Dose PD50 for Mice Infected with Lethal Inoculum

P. mirabilis A9554 = assay: Protective dose PD50, mice infected with lethal inoculum, oral treatment, P. mirabilis A9554; format: in vivo
S. pyogenes = assay: In vitro activity against Streptococci (MIC), S. pyogenes; format: cell-based
S. pneumoniae = assay: In vitro activity against Streptococci (MIC), S. pneumoniae; format: cell-based; conditions: Streptococcus pneumoniae
N. gonorrheae = assay: In vitro activity against Neisseria (MIC), N. gonorrheae; format: cell-based
N. meningitidis = assay: In vitro activity against Neisseria (MIC), N. meningitidis; format: cell-based
H. influenzae = assay: In vitro activity against Haemophilis (MIC), H. influenzae; format: cell-based; conditions: Haemophilus influenzae, Compound 9 lot 2
B. fragilis = assay: In vitro activity against anaerobes (MIC), B. fragilis; format: cell-based; conditions: Bacteroides fragilis
C. difficile A21675 = assay: In vitro activity against anaerobes (MIC), C. difficile; format: cell-based; conditions: Clostridioides difficile, A21675
P. acnes A21933 = assay: In vitro activity against anaerobes (MIC), P. acnes; format: cell-based; conditions: Cutibacterium acnes, A21933
P. anaerobius A21905 = assay: In vitro activity against anaerobes (MIC), P. anaerobius; format: cell-based; conditions: Peptostreptococcus anaerobius, A21905

Question: For N[C@@H](C(=O)N[C@@H]1C(=O)N2C(C(=O)O)=C(Cl)CS[C@H]12)c1ccccc1 [Cefaclor], which ED50 (S. aureus BX-1633) is on record?
Answer: 2.2 mg/kg

Question: And the ED50 (S. pyogenes A20201)?
Answer: 0.14 mg/kg

Question: And the ED50 (H. influenza A9729)?
Answer: 1.6 mg/kg

Question: What about the “Protective Dose PD50” value (P. mirabilis A9554) of the same compound?
Answer: 1.8

Question: And the MIC (S. pyogenes; S. pyogenes A9604, Compound 9 lot 2)?
Answer: 0.2 µg/mL (≈ 0.544 µM)

Question: And the MIC (S. pyogenes; S. pyogenes A15040, Compound 9 lot 2)?
Answer: 0.2 µg/mL (≈ 0.544 µM)

Question: And the MIC (S. pyogenes; S. pyogenes A20065, Compound 9 lot 2)?
Answer: 0.2 µg/mL (≈ 0.544 µM)

Question: And the MIC (S. pyogenes; S. pyogenes Dick, Compound 9 lot 2)?
Answer: 0.2 µg/mL (≈ 0.544 µM)

Question: What about the MIC (S. pyogenes; Streptococcus pyogenes) of the same compound?
Answer: 0.2 µg/mL (≈ 0.544 µM)

Question: And the MIC (S. pyogenes; Streptococcus pyogenes, read-out: MIC, Geometric Mean)?
Answer: 0.2 µg/mL (≈ 0.544 µM)

Question: And the MIC (S. pneumoniae)?
Answer: 0.8 µg/mL (≈ 2.18 µM)

Question: And the MIC (S. pneumoniae; read-out: MIC, Geometric Mean)?
Answer: 1.3 µg/mL (≈ 3.53 µM)

Question: And the MIC (N. gonorrheae)?
Answer: 0.8 µg/mL (≈ 2.18 µM)

Question: And the MIC (N. gonorrheae; N. gonorrheae A20143, Compound 9 lot 2)?
Answer: 0.8 µg/mL (≈ 2.18 µM)

Question: And the MIC (N. gonorrheae; N. gonorrheae A20154, Compound 9 lot 2)?
Answer: 0.8 µg/mL (≈ 2.18 µM)

Question: What about the MIC (N. gonorrheae; N. gonorrheae A20155, Compound 9 lot 2) of the same compound?
Answer: 0.8 µg/mL (≈ 2.18 µM)

Question: What about the MIC (N. gonorrheae; read-out: MIC, Geometric Mean) of the same compound?
Answer: 0.8 µg/mL (≈ 2.18 µM)

Question: What about the MIC (N. meningitidis; N. meningitidis A20049) of the same compound?
Answer: 0.8 µg/mL (≈ 2.18 µM)

Question: And the MIC (N. meningitidis; N. meningitidis A21487, Compound 9 lot 2)?
Answer: 0.8 µg/mL (≈ 2.18 µM)

Question: And the MIC (N. meningitidis; N. meningitidis A21496, Compound 9 lot 2)?
Answer: 0.8 µg/mL (≈ 2.18 µM)

Question: And the MIC (N. meningitidis; N. meningitidis A21497, Compound 9 lot 2)?
Answer: 0.8 µg/mL (≈ 2.18 µM)

Question: What about the MIC (N. meningitidis; Neisseria meningitidis) of the same compound?
Answer: 0.8 µg/mL (≈ 2.18 µM)

Question: What about the MIC (N. meningitidis; Neisseria meningitidis, read-out: MIC, Geometric Mean) of the same compound?
Answer: 0.8 µg/mL (≈ 2.18 µM)

Question: And the MIC (H. influenzae; H. influenzae A9729)?
Answer: 0.8 µg/mL (≈ 2.18 µM)

Question: What about the MIC (H. influenzae; H. influenzae A9833) of the same compound?
Answer: 0.8 µg/mL (≈ 2.18 µM)

Question: And the MIC (H. influenzae; H. influenzae A20177)?
Answer: 0.8 µg/mL (≈ 2.18 µM)

Question: What about the MIC (H. influenzae; H. influenzae A20193) of the same compound?
Answer: 0.8 µg/mL (≈ 2.18 µM)

Question: And the MIC (H. influenzae; H. influenzae A21523)?
Answer: 0.8 µg/mL (≈ 2.18 µM)

Question: What about the MIC (H. influenzae; H. influenzae A22482) of the same compound?
Answer: 0.4 µg/mL (≈ 1.09 µM)

Question: And the MIC (H. influenzae; H. influenzae A22483)?
Answer: 0.4 µg/mL (≈ 1.09 µM)

Question: And the MIC (H. influenzae; read-out: MIC, Geometric Mean, H. influenzae, seven strains above)?
Answer: 0.66 µg/mL (≈ 1.79 µM)

Question: And the MIC (B. fragilis; B. fragilis A20928-1, β-lactamase (-))?
Answer: 3.1 µg/mL (≈ 8.43 µM)

Question: And the MIC (B. fragilis; B. fragilis A20935, β-lactamase (-))?
Answer: 3.1 µg/mL (≈ 8.43 µM)

Question: What about the MIC (B. fragilis; B. fragilis A22021, β-lactamase (+)) of the same compound?
Answer: > 100 µg/mL

Question: What about the MIC (B. fragilis; B. fragilis A22053, β-lactamase (+)) of the same compound?
Answer: 100 µg/mL (≈ 272 µM)

Question: And the MIC (B. fragilis; B. fragilis A22533, β-lactamase (+))?
Answer: > 100 µg/mL

Question: What about the MIC (B. fragilis; B. fragilis A22693, β-lactamase (+)) of the same compound?
Answer: > 100 µg/mL

Question: And the MIC (B. fragilis; B. fragilis A22695, β-lactamase (+))?
Answer: 100 µg/mL (≈ 272 µM)

Question: And the MIC (B. fragilis; read-out: MIC, Geometric Mean, B. fragilis A20928-1, A21900, A20935, β-lactamase (-))?
Answer: 3.9 µg/mL (≈ 10.6 µM)

Question: And the MIC (B. fragilis; read-out: MIC, Geometric Mean, B. fragilis A22053, A22021, A22693, β-lactamase (+))?
Answer: > 100 µg/mL

Question: What about the MIC (B. fragilis; read-out: MIC, Geometric Mean, B. fragilis A22695, A22533, β-lactamase (+)) of the same compound?
Answer: > 100 µg/mL

Question: What about the MIC (C. difficile A21675) of the same compound?
Answer: 25 µg/mL (≈ 68 µM)

Question: And the MIC (P. acnes A21933)?
Answer: 0.8 µg/mL (≈ 2.18 µM)

Question: And the MIC (P. anaerobius A21905)?
Answer: 0.4 µg/mL (≈ 1.09 µM)
